“And” between values parts separate entries of the source, which are not always exact repeats. Identical values can stand only once. Inconclusive results and toxic doses are left out. Rule for the calls: active = survival T/C of 150% or more; inactive = T/C below 125% in these data.
Test system: P388 leukemia ip, CD2F1 mice, survival T/C
Test: NCI In Vivo Anticancer Drug Screen. Data for tumor model P388 Leukemia (intraperitoneal) in CD2F1 (CDF1) mice
Details: endpoint: median survival time, higher = longer survival
In short: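 Mice carrying the transplanted tumor received test compound or vehicle. Survival was recorded in each group, and the value is the treated-group measurement divided by that of the vehicle-treated control group.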

[1] = dose: 100.0 mg/kg/injection, schedule: Q04DX002 (ip), vehicle: saline with Tween-80
[2] = dose: 100.0 mg/kg/injection, schedule: Q04DX003 (ip), vehicle: saline with Tween-80
[3] = dose: 200.0 mg/kg/injection, schedule: Q04DX003 (ip), vehicle: saline with Tween-80
[4] = dose: 400.0 mg/kg/injection, schedule: Q04DX003 (ip), vehicle: saline with Tween-80
[5] = dose: 100.0 mg/kg/injection, schedule: Q01DX009 (ip), vehicle: saline with Tween-80
[6] = dose: 200.0 mg/kg/injection, schedule: Q01DX009 (ip), vehicle: saline with Tween-80
[7] = dose: 50.0 mg/kg/injection, schedule: Q01DX009 (ip), vehicle: saline
[8] = dose: 100.0 mg/kg/injection, schedule: Q01DX009 (ip), vehicle: saline
[9] = dose: 200.0 mg/kg/injection, schedule: Q01DX009 (ip), vehicle: saline
[10] = dose: 25.0 mg/kg/injection, schedule: Q01DX005 (ip), vehicle: Klucel (hydroxypropylcellulose) (HPC)
[11] = dose: 50.0 mg/kg/injection, schedule: Q01DX005 (ip), vehicle: Klucel (hydroxypropylcellulose) (HPC)
[12] = dose: 100.0 mg/kg/injection, schedule: Q01DX005 (ip), vehicle: Klucel (hydroxypropylcellulose) (HPC)
[13] = dose: 200.0 mg/kg/injection, schedule: Q01DX005 (ip), vehicle: Klucel (hydroxypropylcellulose) (HPC)

Measured: T/C

CCOC(=O)c1c(C)[nH]c(=O)c(C#N)c1NC1CCCCC1
inactive: dose: 25.0 mg/kg/injection, schedule: Q04DX002 (ip), vehicle: saline with Tween-80 98 % of control | dose: 50.0 mg/kg/injection, schedule: Q04DX002 (ip), vehicle: saline with Tween-80 100 % of control | [1] 92 % of control

NC(=O)c1ccc(=O)n(C2OC(CO)C(O)C2O)c1 (stereo unspecified)
inactive: dose: 50.0 mg/kg/injection, schedule: Q04DX003 (ip), vehicle: saline with Tween-80 102 % of control | [2] 102 % of control | [3] 100 % of control | [4] 102 % of control

COC(=O)c1ccc(C(N)=O)nc1
inactive: dose: 25.0 mg/kg/injection, schedule: Q04DX002 (ip), vehicle: Klucel (hydroxypropylcellulose) (HPC) 97 % of control | dose: 50.0 mg/kg/injection, schedule: Q04DX002 (ip), vehicle: Klucel (hydroxypropylcellulose) (HPC) 101 % of control | dose: 100.0 mg/kg/injection, schedule: Q04DX002 (ip), vehicle: Klucel (hydroxypropylcellulose) (HPC) 96 % of control | dose: 200.0 mg/kg/injection, schedule: Q04DX002 (ip), vehicle: Klucel (hydroxypropylcellulose) (HPC) 105 % of control

CCCCOP(=O)(N1CC1(C)C)N1CC1(C)C (stereo unspecified)
inactive: dose: 2.0 mg/kg/injection, schedule: Q01DX009 (ip), vehicle: saline 104 % of control and 115 % of control and 96 % of control | dose: 4.0 mg/kg/injection, schedule: Q01DX009 (ip), vehicle: saline 115 % of control and 117 % of control and 98 % of control | dose: 8.0 mg/kg/injection, schedule: Q01DX009 (ip), vehicle: saline 108 % of control and 111 % of control | dose: 10.0 mg/kg/injection, schedule: Q01DX001 (ip), vehicle: saline 105 % of control and 111 % of control and 115 % of control | dose: 20.0 mg/kg/injection, schedule: Q01DX001 (ip), vehicle: saline 101 % of control and 102 % of control | dose: 40.0 mg/kg/injection, schedule: Q01DX001 (ip), vehicle: saline 105 % of control and 117 % of control

CC(=O)C(=O)C1=C2CCCN2CCc2cc3c(cc21)OCO3
inactive: dose: 6.25 mg/kg/injection, schedule: Q01DX009 (ip), vehicle: water 92 % of control | dose: 12.5 mg/kg/injection, schedule: Q01DX009 (ip), vehicle: water 98 % of control | dose: 25.0 mg/kg/injection, schedule: Q01DX009 (ip), vehicle: water 93 % of control | dose: 50.0 mg/kg/injection, schedule: Q01DX009 (ip), vehicle: water 101 % of control | dose: 100.0 mg/kg/injection, schedule: Q01DX009 (ip), vehicle: water 99 % of control

CC1CC[N-]CC1.CC1CC[N-]CC1.CC1CC[N-]CC1.CC1CC[N-]CC1.CS(C)=O.CS(C)=O.[Cl-].[Cl-].[Cl-].[Cl-].[Pt+4].[Rh+3]
inactive: dose: 0.19 mg/kg/injection, schedule: Q01DX009 (ip), vehicle: saline 98 % of control | dose: 0.38 mg/kg/injection, schedule: Q01DX009 (ip), vehicle: saline 114 % of control | dose: 0.75 mg/kg/injection, schedule: Q01DX009 (ip), vehicle: saline 105 % of control | dose: 1.5 mg/kg/injection, schedule: Q01DX009 (ip), vehicle: saline 108 % of control | dose: 3.0 mg/kg/injection, schedule: Q01DX009 (ip), vehicle: saline 115 % of control

O=[N+]([O-])c1ccc(C2=C[P+](c3ccccc3)(c3ccccc3)C=C(c3ccccc3)O2)cc1
inactive: dose: 1.5 mg/kg/injection, schedule: Q01DX005 (ip), vehicle: saline with Tween-80 115 % of control | dose: 1.5 mg/kg/injection, schedule: Q01DX005 (ip), vehicle: saline 117 % of control | dose: 3.0 mg/kg/injection, schedule: Q01DX005 (ip), vehicle: saline with Tween-80 113 % of control | dose: 3.0 mg/kg/injection, schedule: Q01DX005 (ip), vehicle: saline 124 % of control

O=C(Nc1cccc2c1C(=O)c1cccc(NC(=O)c3ccc(C(=O)Nc4cccc5c4C(=O)c4cccc(NC(=O)c6ccccc6)c4C5=O)cc3)c1C2=O)c1ccccc1
inactive: dose: 50.0 mg/kg/injection, schedule: Q01DX009 (ip), vehicle: saline with Tween-80 100 % of control | [5] 94 % of control | [6] 93 % of control

CCCCOP(O)(=S)OCCCC.[Yb]
inactive: [1] 96 % of control | dose: 200.0 mg/kg/injection, schedule: Q04DX002 (ip), vehicle: saline with Tween-80 101 % of control | dose: 400.0 mg/kg/injection, schedule: Q04DX002 (ip), vehicle: saline with Tween-80 99 % of control

NS(=O)(=O)c1ccc(NC(=S)S)cc1
inactive: dose: 50.0 mg/kg/injection, schedule: Q01DX009 (ip), vehicle: Klucel (hydroxypropylcellulose) (HPC) 107 % of control | dose: 100.0 mg/kg/injection, schedule: Q01DX009 (ip), vehicle: Klucel (hydroxypropylcellulose) (HPC) 107 % of control | dose: 200.0 mg/kg/injection, schedule: Q01DX009 (ip), vehicle: Klucel (hydroxypropylcellulose) (HPC) 91 % of control

COc1cc2c(cc1OC)C(Cc1ccc3cc(OC)c(OC)cc3c1)=NCC2
inactive: [5] 90 % of control | [6] 90 % of control | dose: 400.0 mg/kg/injection, schedule: Q01DX009 (ip), vehicle: saline with Tween-80 100 % of control

CC(C)N=Cc1ccccc1O.CC(C)N=Cc1ccccc1O.[Zn]
inactive: dose: 25.0 mg/kg/injection, schedule: Q04DX003 (ip), vehicle: saline sonified 100 % of control | dose: 50.0 mg/kg/injection, schedule: Q04DX003 (ip), vehicle: saline sonified 100 % of control | dose: 100.0 mg/kg/injection, schedule: Q04DX003 (ip), vehicle: saline sonified 104 % of control

Cc1cc(-c2nc(-c3cc(C)c(O)c(C)c3)nc(-c3cc(C)c(O)c(C)c3)n2)cc(C)c1O
inactive: dose: 50.0 mg/kg/injection, schedule: Q04DX003 (ip), vehicle: Klucel (hydroxypropylcellulose) (HPC) 100 % of control | dose: 100.0 mg/kg/injection, schedule: Q04DX003 (ip), vehicle: Klucel (hydroxypropylcellulose) (HPC) 106 % of control | dose: 200.0 mg/kg/injection, schedule: Q04DX003 (ip), vehicle: Klucel (hydroxypropylcellulose) (HPC) 105 % of control

Nc1cn(C2CC(O)C(CO)O2)c(=O)[nH]c1=O (stereo unspecified)
inactive: dose: 25.0 mg/kg/injection, schedule: Q01DX009 (ip), vehicle: saline 106 % of control | [7] 105 % of control | [8] 105 % of control | [9] 105 % of control

COc1c(I)c2c(c([N+](=O)[O-])c1OC)C(=O)OC2C1c2c(cc3c(c2OC)OCO3)CCN1C (stereo unspecified)
inactive: [10] 92 % of control | [11] 101 % of control | [12] 96 % of control | [13] 91 % of control

C=CCC(CC1CC2CCCCN2O1)OCc1ccccc1 (stereo unspecified)
inactive: [2] 101 % of control | [3] 105 % of control | [4] 104 % of control

C[N+](C)(C)CCC[N+]1(C)CC2CCCCC2C1 (stereo unspecified)
inactive: dose: 50.0 mg/kg/injection, schedule: Q01DX005 (ip), vehicle: saline 107 % of control | dose: 100.0 mg/kg/injection, schedule: Q01DX005 (ip), vehicle: saline 98 % of control | dose: 200.0 mg/kg/injection, schedule: Q01DX005 (ip), vehicle: saline 101 % of control

O=C1C=CC(=O)N1c1ccc(Cl)cc1
inactive: dose: 1.0 mg/kg/injection, schedule: Q01DX009 (ip), vehicle: Klucel (hydroxypropylcellulose) (HPC) 107 % of control | dose: 1.25 mg/kg/injection, schedule: Q01DX009 (ip), vehicle: Klucel (hydroxypropylcellulose) (HPC) 93 % of control | dose: 2.0 mg/kg/injection, schedule: Q01DX009 (ip), vehicle: Klucel (hydroxypropylcellulose) (HPC) 104 % of control | dose: 2.5 mg/kg/injection, schedule: Q01DX009 (ip), vehicle: Klucel (hydroxypropylcellulose) (HPC) 96 % of control | dose: 4.0 mg/kg/injection, schedule: Q01DX009 (ip), vehicle: Klucel (hydroxypropylcellulose) (HPC) 104 % of control | dose: 5.0 mg/kg/injection, schedule: Q01DX009 (ip), vehicle: Klucel (hydroxypropylcellulose) (HPC) 89 % of control | dose: 8.0 mg/kg/injection, schedule: Q01DX009 (ip), vehicle: Klucel (hydroxypropylcellulose) (HPC) 102 % of control | dose: 10.0 mg/kg/injection, schedule: Q01DX009 (ip), vehicle: Klucel (hydroxypropylcellulose) (HPC) 93 % of control

Clc1ccc(SSN2CCCCC2)cc1
inactive: [7] 92 % of control | [8] 97 % of control | [9] 96 % of control

CC(=O)Nc1ccc2c(c1)nc(-c1ccccn1)n2CCc1ccccn1
inactive: [10] 103 % of control | [11] 102 % of control | [12] 102 % of control | [13] 102 % of control

Nc1cccnc1S(=O)(=O)O
inactive: [7] 94 % of control | [8] 98 % of control | [9] 98 % of control

From PubChem BioAssay AID330 (DTP/NCI, 2004)
